IC50 data for 19 molecules are collected here from article PMC4595834, “Comparison of carbon-sulfur and carbon-amine bond in therapeutic drug: 4β-S-aromatic heterocyclic podophyllum derivatives display antitumor activity” (Scientific Reports, 2015).

The structures appear in SMILES notation. Where two headings read alike, the source gives them in different places.

The subject of one data set is HeLa cells. In words: MTT cytotoxicity assay, HeLa. It is filed as cell-based, human. The note with it: Homo sapiens, HeLa; MTT, drug exposure 48 h, mean ± SD (n = 3); read-out: Cytotoxic activity (IC50) HeLa. The protocol: (§1) Cytotoxicity of the podophyllum derivatives were determined by reading the absorbance at 492 nm on a multiplate reader (Thermo Fisher Scientific, Multiskan MK3). Cell cycle analysis and apoptosis analysis were analyzed by flow cytometry (Accuri C6, BD). Immunofluorescence images were recorded using laser scanning microscope (Perkin-Elmer & Olympus, UltraView VoX & Ix81). The gel for the decatenation of kDNA by Topoisomerase II study was photographed with UV illumination, Tanon 1600 (Tanon Science & Technology Co., Ltd., Shanghai). The nitrocellulose blotting membrane for western blot analysis was visualized using X-ray film processor and X-ray film, Fujifilm SUPER RX-N-C.
(§2) Cytotoxicity assay was performed on human lung adenocarcinoma epithelial cell line (A549), henrietta lacks strain of cancer cells (HeLa), human gastric carcinoma cell line (BGC 823), and normal human hepatocyte cell line (HL-7702). Cells (3500–13,000) in a 100 μL culture medium per well were seeded into 96-well microtest plates (Falcon, CA). A549 cell lines, HeLa cell lines and HL-7702 cell lines were cultured in DMEM supplemented with 10% CS, 100 mg/L penicillin G, 100 mg/L streptomycin. BGC 823 cell lines were cultured in RPMI medium 1640 supplemented with 10% CS, 100 mg/L penicillin G, and 100 mg/L streptomycin. The cells were incubated at 37 °C, in a humidified atmosphere with 5% CO2 for 48 h. For all cell lines, the microculture tetrazolium [3-(4, 5-dimethylthiazol-2-yl)-2, 5-diphenyltetrazolium bromide, MTT; Sigma, St. Louis, MO] assay was performed to measure the cytotoxic effects. Drug stock solutions (the each drug concentration was 0.5, 1, 10, 20, 50, 100, 200, and 500 μM, respectively) were prepared in DMSO and the final solvent concentration was ≤ 2% DMSO (v/v), a concentration without effect on cell replication. Initial seeding densities varied among the cell lines to ensure a final absorbance reading in control (untreated) cultures in the range 0.6–0.8 A492 units. Drug exposure was for 2 days, and the IC50 value, the drug concentration that reduced the absorbance by 50%, was interpolated from dose-response data. Each test was performed in triplicate, and absorbance readings varied no more than 5%. Data presented as means ± standard deviation (SD). Statistical analyses were performed by the analysis of variance (ANOVA). All statistical analyses were performed using Origin version 8.0 ([…], OriginLab Corp., Northampton, MA, USA). Sigmoidal dose responses and non-linear regression analyses were undertaken to identify half-maximal concentrations for each of the drugs. To evaluate differences in IC50 concentrations, analysis of variance combined with Tukey’s multiple range test was used.
For orientation: Tetrazolium assays rely on reduction of a dye to a coloured formazan, in cell work by metabolically active cells.

The subject of the next data set is BGC-823 cells. In words: MTT cytotoxicity assay, BGC-823. It is filed as cell-based, human. The note with it: Homo sapiens, BGC-823; MTT, drug exposure 48 h, mean ± SD (n = 3); read-out: Cytotoxic activity (IC50) BGC-823. The protocol:
as §1, §2

Another data set relates to A549 cells. The data set is described as follows: MTT cytotoxicity assay, A549. The note with it: MTT, drug exposure 48 h, mean ± SD (n = 3), read-out: Cytotoxic activity (IC50) A549. It is filed as cell-based, human. The protocol: as §1, §2
The nature of data set [1]: MTT cytotoxicity assay, normal hepatocyte HL-7702. It counts as cell-based. The settings on record: HL-7702 cells (normal hepatocyte cell line), normal human hepatocyte cell line, drug exposure 48 h, mean ± SD (n = 3), read-out: Cytotoxic activity (IC50) HL-7702. The protocol:
as §1, §2

Usually IC50 stands for the concentration that gives 50% inhibition. With `COc1cc([C@@H]2c3cc4c(cc3[C@@H](Nc3nncs3)[C@H]3COC(=O)[C@H]23)OCO4)cc(OC)c1O` [2′N, 4β-NH-(1,3,4-thiodizole-2)-4-deoxy-4′-demethyl-podophyllotoxin], the IC50 with HeLa cells was 10.3 ± 0.41 µM; in the data set with BGC-823 cells, 15.4 ± 0.63 µM; with A549 cells (Homo sapiens, A549, 48 h) it was 2.22 ± 0.31 µM. The IC50 at 48 h in data set [1] was 28.7 ± 1.31 µM.
On the same counts, the results for `COc1cc([C@@H]2c3cc4c(cc3[C@@H](Nc3ccccn3)[C@H]3COC(=O)[C@H]23)OCO4)cc(OC)c1O` [3′N, 4β-NH-(pyridine-2)-4-deoxy-4′-demethyl-podophyllotoxin] are 96.5 ± 7.64 µM, 111 ± 3.55 µM, 122 ± 4.6 µM and 122 ± 5.88 µM.
On the same counts, the results for `COc1cc([C@@H]2c3cc4c(cc3[C@@H](Nc3ncccn3)[C@H]3COC(=O)[C@H]23)OCO4)cc(OC)c1O` [4′N, 4β-NH-(pyrimidine-2)-4-deoxy-4′-demethyl-podophyllotoxin] are 44.4 ± 2.37 µM, 64.2 ± 4.43 µM, 70.4 ± 3.92 µM and 41.8 ± 1.75 µM.
On the same counts, the results for `COc1cc([C@@H]2c3cc4c(cc3[C@@H](Sc3ncccn3)[C@H]3COC(=O)[C@H]23)OCO4)cc(OC)c1O` [4′S, 4β-S-(pyrimidine-2)-4-deoxy-4′-demethyl-podophyllotoxin] are 12.92 ± 0.08 µM, 11.2 ± 0.35 µM, 14 ± 1.66 µM and 140 ± 3.82 µM.
Regarding `COc1cc([C@@H]2c3cc4c(cc3[C@@H](Nc3nc5ccccc5s3)[C@H]3COC(=O)[C@H]23)OCO4)cc(OC)c1O` [5′N, 4β-NH-(benzothiazole-2)-4-deoxy-4′-demethyl-podophyllotoxin], the IC50 stood at 5.65 ± 0.11 µM in the data set with HeLa cells; 10.5 ± 0.45 µM with BGC-823 cells; 14.2 ± 0.43 µM with A549 cells (Homo sapiens, A549, 48 h). Moreover, the IC50 at 48 h in data set [1] was determined as 18.6 ± 1.48 µM.
With `COc1cc([C@@H]2c3cc4c(cc3[C@@H](Sc3nc5ccccc5s3)[C@H]3COC(=O)[C@H]23)OCO4)cc(OC)c1O` [5′S, 4β-S-(benzothiazole-2)-4-deoxy-4′-demethyl-podophyllotoxin], the IC50 in the data set with HeLa cells was found to be 1.71 ± 0.07 µM; with BGC-823 cells, 1.87 ± 0.36 µM; in the data set with A549 cells (Homo sapiens, A549, 48 h) it was 8.25 ± 0.83 µM. Moreover, the IC50 at 48 h in data set [1] was 98.5 ± 3.51 µM.
Consider `COc1cc([C@@H]2c3cc4c(cc3[C@@H](Nc3ncnc5nc[nH]c35)[C@H]3COC(=O)[C@H]23)OCO4)cc(OC)c1O` [6′N, 4β-NH-(purine-6)-4-deoxy-4′-demethylepipodophyllotoxin], for which the IC50 came out at 20.5 ± 0.38 µM in the data set on HeLa cells; 43.2 ± 1.36 µM in the data set on BGC-823 cells; 15.7 ± 1.61 µM in the data set with A549 cells (Homo sapiens, A549, 48 h). Moreover, the IC50 at 48 h in data set [1] was determined as 19.2 ± 1.31 µM.
For `COc1cc([C@@H]2c3cc4c(cc3[C@@H](Sc3ncnc5nc[nH]c35)[C@H]3COC(=O)[C@H]23)OCO4)cc(OC)c1O` [6′S, 4β-S-(purine-6)-4-deoxy-4′-demethyl-podophyllotoxin], in that order: 10.3 ± 0.41 µM, 45 ± 3.68 µM, 7.45 ± 0.18 µM and 27.5 ± 2.35 µM.
For `COc1cc([C@@H]2c3cc4c(cc3[C@@H](Nc3nncs3)[C@H]3COC(=O)[C@H]23)OCO4)cc(OC)c1OC` [Compound 2N, 4β-NH-(1,3,4-thiodiazole-2)-4-deoxy-podophyllotoxin], the 50% inhibitory concentration (IC50) stood at 6.33 ± 0.36 µM in the data set with HeLa cells; 2.33 ± 0.24 µM in the data set on BGC-823 cells; 12.5 ± 0.55 µM in the data set on A549 cells (Homo sapiens, A549, 48 h). The IC50 at 48 h in data set [1] was determined as 18.7 ± 3.19 µM.
Turning to `COc1cc([C@@H]2c3cc4c(cc3[C@@H](Sc3nncs3)[C@H]3COC(=O)[C@H]23)OCO4)cc(OC)c1OC` [Compound 2S], the IC50 was found to be 1.25 ± 0.36 µM with HeLa cells; 0.31 ± 0.02 µM in the data set with BGC-823 cells; 1.26 ± 0.1 µM in the data set with A549 cells (Homo sapiens, A549, 48 h). The IC50 at 48 h in data set [1] was 36.2 ± 3.81 µM.
On to `COc1cc([C@@H]2c3cc4c(cc3[C@@H](Nc3ccccn3)[C@H]3COC(=O)[C@H]23)OCO4)cc(OC)c1OC` [Compound 3N, 4β-NH-(pyridine-2)-4-deoxy-podophyllotoxin], for which the IC50 in the data set with HeLa cells was 13.7 ± 2.13 µM; in the data set on BGC-823 cells, 14.3 ± 3.22 µM; in the data set on A549 cells (Homo sapiens, A549, 48 h), 28.2 ± 2.58 µM. In data set [1], the half-maximal inhibitory concentration (IC50) at 48 h is 28.2 ± 2.58 µM.
As for `COc1cc([C@@H]2c3cc4c(cc3[C@@H](Sc3ccccn3)[C@H]3COC(=O)[C@H]23)OCO4)cc(OC)c1OC` [Compound 3S, 4β-S-(pyridine-2)-4-deoxy-podophyllotoxin], the IC50 with HeLa cells amounted to 0.9 ± 0.03 µM; in the data set with BGC-823 cells, 1.09 ± 0.06 µM; in the data set with A549 cells (Homo sapiens, A549, 48 h) it was 19.1 ± 1.52 µM. Also, the IC50 at 48 h in data set [1] came to 89.7 ± 2.45 µM.
With `COc1cc([C@@H]2c3cc4c(cc3[C@@H](Nc3ncccn3)[C@H]3COC(=O)[C@H]23)OCO4)cc(OC)c1OC` [Compound 4N, 4β-NH-(pyrimidine-2)-4-deoxy-podophyllotoxin], the IC50 with HeLa cells was 26.4 ± 1.52 µM; in the data set with BGC-823 cells, 63.6 ± 3.77 µM; in the data set on A549 cells (Homo sapiens, A549, 48 h), 59.6 ± 3.48 µM. The IC50 at 48 h in data set [1] turned out to be 47.3 ± 2.71 µM.
For `COc1cc([C@@H]2c3cc4c(cc3[C@@H](Sc3ncccn3)[C@H]3COC(=O)[C@H]23)OCO4)cc(OC)c1OC` [Compound 4S, 4β-S-(pyrimidine-2)-4-deoxy-podophyllotoxin], in that order: 3.64 ± 0.46 µM, 0.49 ± 0.01 µM, 2.4 ± 0.76 µM and 51.1 ± 3.17 µM.
In the case of `COc1cc([C@@H]2c3cc4c(cc3[C@@H](Nc3nc5ccccc5s3)[C@H]3COC(=O)[C@H]23)OCO4)cc(OC)c1OC` [Compound 5N], the IC50 was 2.32 ± 0.28 µM in the data set on HeLa cells; 13.2 ± 0.86 µM in the data set on BGC-823 cells; 15.2 ± 0.43 µM in the data set on A549 cells (Homo sapiens, A549, 48 h). The IC50 at 48 h in data set [1] was found to be 5.33 ± 0.14 µM.
For the molecule `COc1cc([C@@H]2c3cc4c(cc3[C@@H](Sc3nc5ccccc5s3)[C@H]3COC(=O)[C@H]23)OCO4)cc(OC)c1OC` [Compound 5S, 4β-S-(benzothiazole-2)-4-deoxy-podophyllotoxin], the IC50 amounted to 0.97 ± 0.12 µM in the data set with HeLa cells; 1.04 ± 0.13 µM in the data set on BGC-823 cells; 11.1 ± 1.71 µM in the data set on A549 cells (Homo sapiens, A549, 48 h). Also, the IC50 at 48 h in data set [1] was found to be 31.8 ± 1.62 µM.
On to `COc1cc([C@@H]2c3cc4c(cc3[C@@H](Nc3ncnc5nc[nH]c35)[C@H]3COC(=O)[C@H]23)OCO4)cc(OC)c1OC` [Compound 6N], for which the IC50 came out at 5.85 ± 0.36 µM in the data set with HeLa cells; 12.5 ± 1.35 µM in the data set with BGC-823 cells; 3.72 ± 0.11 µM in the data set with A549 cells (Homo sapiens, A549, 48 h). Also, the IC50 at 48 h in data set [1] is 13.6 ± 1.26 µM.
For `COc1cc([C@@H]2c3cc4c(cc3[C@@H](Sc3ncnc5nc[nH]c35)[C@H]3COC(=O)[C@H]23)OCO4)cc(OC)c1OC` [Compound 6S, 4β-S-(purine-6)-4-deoxy-podophyllotoxin], the IC50 with HeLa cells was found to be 1.21 ± 0.13 µM; in the data set with BGC-823 cells, 11.3 ± 1.71 µM; in the data set on A549 cells (Homo sapiens, A549, 48 h), 0.57 ± 0.22 µM. In addition, the IC50 at 48 h in data set [1] worked out at 20.6 ± 1.38 µM.
With `COc1cc([C@@H]2c3cc4c(cc3[C@@H](O[C@@H]3O[C@@H]5CO[C@@H](C)O[C@H]5[C@H](O)[C@H]3O)[C@H]3COC(=O)[C@H]23)OCO4)cc(OC)c1O` [etoposide, reference compound], the values for the IC50 in the data set on HeLa cells, with BGC-823 cells and with A549 cells were 59.4 ± 2.45 µM, 20.5 ± 2.55 µM and 20.1 ± 1.95 µM, respectively. Further, in data set [1], the IC50 at 48 h is 24.6 ± 3.82 µM.
